The values that follow are results of earlier work, collected in PubChem BioAssay AID1259409 (Chemical Carcinogenesis Research Information System (CCRIS), 2018).

The subject of this data set is rodent chemically induced tumor inhibition, incidence and multiplicity. Put plainly: CCRIS tumor inhibitor studies.

On to `CC(C)C[C@H]1C(=O)N2CCC[C@H]2[C@]2(O)O[C@](NC(=O)[C@@H]3C=C4c5cccc6[nH]c(Br)c(c56)C[C@H]4N(C)C3)(C(C)C)C(=O)N12`, for which the “tumour outcome (control, treated, inhibition, significance)” value reads like this: (Carcinogen: 7,12-DIMETHYLBENZ[A]ANTHRACENE, 57-97-6, Dose [Inhibitor]: 0.4 MG/D FROM 90 TO 150 D OF AGE BEGINNING 30 D POST CARCINOGEN TREATMENT (STUDY DURATION: 9 MO AFTER DMBA TREATMENT), Route [Inhibitor]: SUBCUTANEOUS, Species: RAT, Strain/Sex: LONG-EVANS/FEMALE, Target Tissue: Type of Lesion: MAMMARY GLAND: CARCINOMA, Dose [Carcinogen]: 20 MG ONCE AT 60 D OF AGE, Promoter: NONE USED) 20%, 38%, -90%, not significant; (Carcinogen: 7,12-DIMETHYLBENZ[A]ANTHRACENE, 57-97-6, Dose [Inhibitor]: 0.4 MG/D FROM 90 TO 150 D OF AGE BEGINNING 30 D POST CARCINOGEN TREATMENT (STUDY DURATION: 9 MO AFTER DMBA TREATMENT), Route [Inhibitor]: SUBCUTANEOUS, Species: RAT, Strain/Sex: LONG-EVANS/FEMALE, Target Tissue: Type of Lesion: MAMMARY GLAND: FIBROADENOMA, Dose [Carcinogen]: 20 MG ONCE AT 60 D OF AGE, Promoter: NONE USED) 16%, 0%, 100%, not significant; (Carcinogen: 7,12-DIMETHYLBENZ[A]ANTHRACENE, 57-97-6, Dose [Inhibitor]: 0.4 MG/D FROM 90 TO 150 D OF AGE BEGINNING 30 D POST CARCINOGEN TREATMENT (STUDY DURATION: 9 MO AFTER DMBA TREATMENT), Route [Inhibitor]: SUBCUTANEOUS, Species: RAT, Strain/Sex: SPRAGUE-DAWLEY/FEMALE, Target Tissue: Type of Lesion: MAMMARY GLAND: CARCINOMA, Dose [Carcinogen]: 5 MG ONCE AT 60 D OF AGE, Promoter: NONE USED) 85%, 52%, 39%, p<0.05; (Carcinogen: 7,12-DIMETHYLBENZ[A]ANTHRACENE, 57-97-6, Dose [Inhibitor]: 0.4 MG/D FROM 90 TO 150 D OF AGE BEGINNING 30 D POST CARCINOGEN TREATMENT (STUDY DURATION: 9 MO AFTER DMBA TREATMENT), Route [Inhibitor]: SUBCUTANEOUS, Species: RAT, Strain/Sex: SPRAGUE-DAWLEY/FEMALE, Target Tissue: Type of Lesion: MAMMARY GLAND: FIBROADENOMA, Dose [Carcinogen]: 5 MG ONCE AT 60 D OF AGE, Promoter: NONE USED) 22%, 10%, 54%, not significant; (Carcinogen: 7,12-DIMETHYLBENZ[A]ANTHRACENE, 57-97-6, Dose [Inhibitor]: 0.4 MG/D FROM 90 TO 150 D OF AGE BEGINNING 30 D POST CARCINOGEN TREATMENT (STUDY DURATION: 12 MO AFTER DMBA TREATMENT), Route [Inhibitor]: SUBCUTANEOUS, Species: RAT, Strain/Sex: SPRAGUE-DAWLEY/FEMALE, Target Tissue: Type of Lesion: MAMMARY GLAND: CARCINOMA, Dose [Carcinogen]: 1.25 MG ONCE AT 60 D OF AGE, Promoter: NONE USED) 15%, 10%, 33%, not significant; (Carcinogen: 7,12-DIMETHYLBENZ[A]ANTHRACENE, 57-97-6, Dose [Inhibitor]: 0.4 MG/D FROM 90 TO 150 D OF AGE BEGINNING 30 D POST CARCINOGEN TREATMENT (STUDY DURATION: 12 MO AFTER DMBA TREATMENT), Route [Inhibitor]: SUBCUTANEOUS, Species: RAT, Strain/Sex: SPRAGUE-DAWLEY/FEMALE, Target Tissue: Type of Lesion: MAMMARY GLAND: FIBROADENOMA, Dose [Carcinogen]: 1.25 MG ONCE AT 60 D OF AGE, Promoter: NONE USED) 73%, 65%, 11%, not significant. Further, the “tumour outcome (control, treated, inhibition, significance)” value is 96%, 87%, 9%, p<0.05 (Carcinogen: 7,12-DIMETHYLBENZ[A]ANTHRACENE, 57-97-6, Dose [Inhibitor]: 0.4 MG/D FROM 90 TO 150 D OF AGE BEGINNING POST CARCINOGEN TREATMENT (STUDY DURATION: 6 MO AFTER DMBA TREATMENT), Route [Inhibitor]: SUBCUTANEOUS, Species: RAT, Strain/Sex: SPRAGUE-DAWLEY/FEMALE, Target Tissue: Type of Lesion: MAMMARY GLAND: CARCINOMA, Dose [Carcinogen]: 20 MG ONCE AT 60 D OF AGE, Promoter: NONE USED); 94%, 55%, 41%, p<0.05 (Carcinogen: 7,12-DIMETHYLBENZ[A]ANTHRACENE, 57-97-6, Dose [Inhibitor]: 0.4 MG/D FROM 93 TO 160 D OF AGE BEGINNING 30 D POST CARCINOGEN TREATMENT (STUDY DURATION: 9 MO AFTER DMBA TREATMENT), Route [Inhibitor]: SUBCUTANEOUS, Species: RAT, Strain/Sex: LEWIS/FEMALE, Target Tissue: Type of Lesion: MAMMARY GLAND: CARCINOMA, Dose [Carcinogen]: 10 MG AT 56 AND 63 D OF AGE, Promoter: NONE USED); 17/18 (94%), 16/19 (84%), 11%, not significant (Carcinogen: 7,12-DIMETHYLBENZ[A]ANTHRACENE, 57-97-6, Dose [Inhibitor]: 6 MG/KG 6/WK FOR 80 OR 100 D BEGINNING 1 D POST CARCINOGEN DOSE (STUDY DURATION: 245 D), Route [Inhibitor]: INTRAPERITONEAL, Species: RAT, Strain/Sex: CFE/FEMALE, Target Tissue: Type of Lesion: MAMMARY GLAND: NOT SPECIFIED, Dose [Carcinogen]: 2.5 MG 1/D FOR 2 D, Promoter: NONE USED); 27/99 (27%), 9/100 (9%), 67%, p<0.05 (Carcinogen: 17-BETA-ESTRADIOL, 50-28-2, Dose [Inhibitor]: 0.1 MG, DAILY WITH CARCINOGEN AT 1 MO OF AGE FOR 22 MO (STUDY DURATION: 22 MO), Route [Inhibitor]: SUBCUTANEOUS, Species: MOUSE, Strain/Sex: C3H/FEMALE, Target Tissue: Type of Lesion: MAMMARY GLAND: TUMOR, Dose [Carcinogen]: 0.5 MG/L IN DRINKING WATER DAILY CONCURRENTLY WITH INHIBITOR FOR 22 MO, Promoter: NONE USED); 27/99 (27%), 9/100 (9%), 67%, p<0.001 (Carcinogen: 17BETA-ESTRADIOL, 50-28-2, Dose [Inhibitor]: 0.1 MG 1/D FOR 19 MO BEGINNING CONCURRENTLY WITH CARCINOGEN DOSE (STUDY DURATION: 19 MO), Route [Inhibitor]: SUBCUTANEOUS, Species: MOUSE, Strain/Sex: C3H/FEMALE, Target Tissue: Type of Lesion: MAMMARY GLAND: CARCINOMA, Dose [Carcinogen]: 0.5 MG/L IN DRINKING WATER BEGINNING AT 30 D OF AGE FOR 19 MO, Promoter: NONE USED); 9/17 (53%), 8/20 (40%), 25%, not significant (Carcinogen: AZOXYMETHANE, 25843-45-2, Dose [Inhibitor]: 0, 2 MG/KG BW SUSPENDED IN 1 ML/MG OLIVE OIL 1/2 D FOR STUDY DURATION (STUDY DURATION: 30 WK), Route [Inhibitor]: SUBCUTANEOUS, Species: RAT, Strain/Sex: WISTAR/MALE, Target Tissue: Type of Lesion: COLON: TUMOR, Dose [Carcinogen]: 7.4 MG/KG IN 0.9% NACL 1/WK FOR 10 WK). Besides, the “tumour outcome (control, treated, inhibition, significance)” value is 10/12 (83%), 7/12 (58%), 30%, not calculated (Carcinogen: DIETHYLSTILBESTROL, 56-53-1, Dose [Inhibitor]: 0.5 MG 5/WK FOR 9 MO CONCURRENTLY WITH CARCINOGEN DOSE (90 MG TOTAL DOSE) (STUDY DURATION: 9 MO), Route [Inhibitor]: SUBCUTANEOUS, Species: HAMSTER, Strain/Sex: SYRIAN/MALE, Target Tissue: Type of Lesion: KIDNEY: EPITHELIAL NEOPLASM, Dose [Carcinogen]: 0.6 MG 3/WK FOR 9 MO (65 MG TOTAL DOSE), Promoter: NONE USED) and 97%, 84%, 13%, not significant (Carcinogen: DIMETHYLBENZ[A]ANTHRACENE, 57-97-6, Dose [Inhibitor]: 1 MG ONCE ON D 2 OF DIESTRUS AND ONCE AT PROESTRUS (STUDY DURATION: 26 WK), Route [Inhibitor]: INTRAPERITONEAL, Species: RAT, Strain/Sex: SPRAGUE-DAWLEY/FEMALE, Target Tissue: Type of Lesion: MAMMARY GLAND: NOT SPECIFIED, Dose [Carcinogen]: 5 MG ONCE AT 50 D OF AGE 30 HR POST 1ST AGENT DOSE, Promoter: NONE USED).
